# Measured values as given in US20010036626A1, “Screening assay methods and systems using target pooling” (priority 2000, published 2001).
# Experiments:
# [1] = system: THP-1 cell line; assay: Pooled two-target microfluidic screen: Fura red fluorescence response of THP-1 cells; assay type: cell-based; conditions: pooled with CHO-M1 cells, microfluidic channel, blue excitation light, FIG. 6C-6D
# Protocol: (§1) A THP-1 cell line was labeled with Fura red. Both cell lines were pooled and introduced into microfluidic device having the channel structure illustrated in FIG. 5. The cells were flowed through the main channel of the device past a detector that excited the cells with blue excitation light. Green fluorescence was analyzed from the Fluo-4 labeled CHO cells to measure their response to the test compounds. The measurement of the different fluorescence was accomplished simultaneously through the use of appropriate beam splitters and filters in the optical train of the detector. Similarly, red fluorescence was measured from the Fura-red labeled THP-1 cells to measure their response. […] Similarly, different concentrations of UTP were also contacted with the cells flowing through the channel and the results for each system were plotted (FIG. 6C-D).
# [2] = system: CHO cell line expressing the M1 muscarinic receptor; assay: Pooled two-target microfluidic screen: Fluo-4 green fluorescence response of CHO-M1 cells; assay type: cell-based; conditions: pooled with THP-1 cells, microfluidic channel, blue excitation light, FIG. 6
# Protocol: as §1
compound,measurement,setting,value
O=c1ccn([C@@H]2O[C@H](COP(=O)(O)OP(=O)(O)OP(=O)(O)O)[C@@H](O)[C@H]2O)c(=O)[nH]1 [UTP],red fluorescence response of Fura-red labeled THP-1 cells to different concentrations of test compound,[1],dose dependent response
same,green fluorescence response of Fluo-4 labeled CHO-M1 cells to different concentrations of test compound,[2],dose dependent response
